We go through 23 molecules from patent US6395737B1, “Malonic acid derivatives, processes for their preparation, for their use and pharmaceutical compositions containing them” (Aventis Pharma Deutschland GmbH, priority 1999, dated 2002).

SMILES strings stand for the structures. Counter-ions that a name gives are not always drawn.

For the test, the target named is factor Xa (Homo sapiens, UniProt P00742). Description: In vitro Factor Xa assay (Test 1a), chromogenic substrate S-2765. The format is biochemical. Also noted: purchased Enzyme Research Laboratories, Inc; South Bend, Ind. To be noted: Factor Xa inhibitory activity; Ki from IC50 corrected for substrate competition; 0.5 nM enzyme, 140 μM S-2765, 25° C. From the text:
The ability of a compound of formula I to inhibit factor Xa, thrombin, plasmin, elastase and trypsin may be assessed by determining the concentration of compound of formula I that inhibits enzyme activity by 50% (IC50). Purified enzymes are used in chromogenic assays. To determine the inhibition constant, the IC50 value is corrected for competition with substrate using the formula:
Ki=IC50×(1/{1+((substrate concentration)/substrate Km)})
where Km is the Michaelis-Menten-constant (Y.-C. Chen and W.H. Prusoff, Biochem. Pharmacol. 22: […] (1973), which is incorporated herein by reference).
TBS-PEG buffer (50 mM Tris-Cl, pH 7.8, 200 mM NaCl, 0.05% (w/v) PEG-8000, 0.02% (w/v) NaN3) is used for this assay. The IC50 is determined by combining in appropriate wells of a Costar half-area microtiter plate 25 μl human factor Xa (Enzyme Research Laboratories, Inc.; South Bend, Ind.) in TBS-PEG; 40 μl 10% (v/v) DMSO in TBS-PEG (uninhibited control) or various concentrations of the compound to be tested diluted in 10% (v/v) DMSO in TBS-PEG; and substrate S-2765 (N-benzyloxycarbonyl-D-Arg-Gly-L-Arg-p-nitroanilide; Kabi Pharmacia, Inc.; Franklin Ohio) in TBS-PEG.
The assays are performed by pre-incubating the compound of formula I plus enzyme for 10 min, then the assay is initiated by adding substrate to obtain a final volume of 100 μl. The initial velocity of chromogenic substrate hydrolysis is measured by the change in absorbance at 405 nm using a Bio-tek Instruments kinetic plate reader (Ceres UV900HDi) at 25° C. during the linear portion of the time course (usually 1.5 min after addition of substrate). The concentration of inhibitor that causes a 50% decrease in the rate of substrate hydrolysis is predicted by linear regression after plotting the relative rates of hydrolysis (compared to the uninhibited control) versus the log of the compound of formula I concentration. The enzyme concentration is 0.5 nM and substrate concentration is 140 μM.

factor Xa, sequence (P00742 235-488 limits assumed): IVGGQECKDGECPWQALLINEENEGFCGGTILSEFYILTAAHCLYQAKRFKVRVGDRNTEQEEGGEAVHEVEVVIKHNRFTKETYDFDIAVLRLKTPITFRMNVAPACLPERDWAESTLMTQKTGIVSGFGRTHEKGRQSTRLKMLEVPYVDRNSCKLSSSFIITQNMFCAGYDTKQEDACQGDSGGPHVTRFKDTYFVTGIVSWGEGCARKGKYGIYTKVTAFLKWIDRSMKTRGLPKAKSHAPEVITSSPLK
factor Xa, sequence (P00742 41-179 partner limits assumed): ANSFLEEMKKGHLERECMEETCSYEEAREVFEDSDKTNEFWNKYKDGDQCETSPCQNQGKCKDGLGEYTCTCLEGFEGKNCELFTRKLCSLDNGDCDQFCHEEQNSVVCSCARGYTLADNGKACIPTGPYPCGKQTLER

With `CN(C)C(=O)C(Cc1ccc(C(=N)N)cc1)C(=O)N[C@H](C(=O)NCc1ccc(C(=N)N)cc1)C1CCCCC1` (mixture of isomers) [Example 4, 2-(R,S)-(4-Carbamimidoyl-benzyl)-N-[(4-carbamimidoyl-benzylcarbamoyl)-(S)-cyclohexyl-methyl]-N′,N′-dimethyl-malonamide Hydrochloric Acid Salt], the Ki amounted to 6 nM.

The molecule `N=C(N)NCCC[C@H](NC(=O)[C@@H](NC(=O)C(Cc1ccc(C(=N)N)cc1)C(=O)N1CCOCC1)c1ccccc1)C(N)=O` (mixture of isomers) [Example 23, 2-(S)-{2-(S)-[2-(R,S)-(4-Carbamimidoyl-benzyl)-3-morpholin-4-yl-3-oxo-propionyl-amino]-2-phenyl-acetylamino}-5-guanidino-pentanoic acid amide trifluoroacetic acid salt] displayed a Ki of 13 nM.

With `CC(C)(C)[C@H](NC(=O)C(Cc1ccc(C(=N)N)cc1)C(=O)N1CCOCC1)C(=O)N[C@@H](CCCNC(=N)N)C(N)=O` (mixture of isomers) [Example 40, 2-(S)-{2-(S)-[2-(R,S)-(4-Carbamimidoyl-benzyl)-3-morpholin-4-yl-3-oxo-propionyl-amino]-3,3-dimethyl-butyrylamino}-5-guanidino-pentanoic acid amide trifluoroacetic acid salt], affinity was put at a Ki of 500 nM.

On to `N=C(N)NCCC[C@H](NC(=O)[C@@H](NC(=O)C(Cc1ccc(C(=N)N)cc1)C(=O)N1CCOCC1)C1CCCCC1)C(N)=O` (mixture of isomers) [Example 41, 2-(S)-{2-(S)-[2-(R,S)-(4-Carbamimidoyl-benzyl)-3-morpholin-4-yl-3-oxo-propionyl-amino]-2-cyclohexyl-acetylamino}-5-guanidino-pentanoic acid amide trifluoroacetic acid salt], for which the affinity, expressed as Ki, was 6.2 nM.

For the molecule `N=C(N)NCCC[C@H](NC(=O)[C@H](Cc1ccccc1)NC(=O)C(Cc1ccc(C(=N)N)cc1)C(=O)N1CCOCC1)C(N)=O` (mixture of isomers) [Example 43, 2-(S)-{2-(S)-[2-(R,S)-(4-Carbamimidoyl-benzyl)-3-morpholin-4-yl-3-oxo-propionyl-amino]-3-phenyl-propionylamino}-5-guanidino-pentanoic acid amide trisfluoroacetic acid salt], the inhibitory constant (Ki) came out at 190 nM.

Molecule `CN(C)C(=O)C(Cc1ccc(C(=N)N)cc1)C(=O)N[C@H](C(=O)N[C@@H](CCCNC(=N)N)C(=O)N1CCN(S(=O)(=O)c2ccc3ccc(Cl)cc3c2)CC1)C1CCCCC1` (mixture of isomers) [Example 45, 2-(R,S)-(4-Carbamimidoyl-benzyl)-N-({1-(S)-[4-(7-chloro-naphthalene-2-sulfonyl)-piperazine-1-carbonyl]-4-guanidino-butylcarbamoyl}-(S)-cyclohexyl-methyl)-N′,N′dimethyl-malonamide hydrochloric acid salt] yielded a Ki of 12 nM.

With `CN(C)C(=O)C(Cc1ccc(C(=N)N)cc1)C(=O)N[C@H](C(=O)NCC1CCNCC1)C1CCCCC1` (mixture of isomers) [Example 47, 2-(R,S)-(4-Carbamimidoyl-benzyl)-N-{(S)-cyclohexyl-[(piperidin-4-ylmethyl)-carbamoyl]-methyl}-N′,N′-dimethyl-malonamide hydrochloric acid salt], the affinity corresponds to a Ki of 460 nM. This Ki lies about 38-fold higher than the previous one.

`CN(C)C(=O)C(Cc1ccc(C(=N)N)cc1)C(=O)N[C@H](C(=O)NCCc1ccc(Cl)c(Cl)c1)C1CCCCC1` (mixture of isomers) [Example 59, 2-(R,S)-(4-Carbamimidoyl-benzyl)-N-{(S)-cyclohexyl-[2-(3,4-dichloro-phenyl)-ethylcarbamoyl]-methyl}-N′,N′-dimethyl-malonamide acetic acid salt] showed a Ki of 5230 nM. Against the preceding molecule, the Ki is about 11-fold higher.

As to `CN(C)C(=O)C(Cc1ccc(C(=N)N)cc1)C(=O)N[C@H](C(=O)NC(Cc1ccc(C(=N)N)cc1)C(N)=O)C1CCCCC1` (mixture of isomers) [Example 87, 2-(R,S)-(4-Carbamimidoyl-benzyl)-N-{(S)-[2-(4-carbamimidoyl-phenyl)-1-carbamoyl-ethylcarbamoyl]-cyclohexyl-methyl}N′,N′-dimethyl-malonamide acetic acid salt], the Ki was found to be 170 nM. This Ki lies about 31-fold lower than the previous one.

As to `CN(C)C(=O)C(Cc1ccc(C(=N)N)cc1)C(=O)N[C@H](C(=O)NCCCCNC(=N)N)C1CCCCC1` (mixture of isomers) [Example 88, 2-(R,S)-(4-Carbamimidoyl-benzyl)-N-[(S)-cyclohexyl-(4-guanidino-butyl-carbamoyl)-methyl]-N′,N′-dimethyl-malonamide sulfuric acid salt], the affinity, expressed as Ki, was 54 nM. Compared with the last molecule, the Ki is about 3.1-fold lower.

Molecule `CN(C)C(=O)C(Cc1ccc(C(=N)N)cc1)C(=O)N[C@H](C(=O)NC(C(=O)N1CCCC1)c1ccc(NC(=N)N)cc1)C1CCCCC1` (mixture of isomers) [Example 96, 2-(R,S)-(4-Carbamimidoyl-benzyl)-N-{(S)-cyclohexyl-[1-(4-guanidino-phenyl)-2-oxo-2-pyrrolidin-1-yl-ethylcarbamoyl]-methyl}-N′,N′-dimethyl-malonamide hydrochloric acid salt] gave a Ki of 960 nM.

Consider `N=C(N)NCCCC(NC(=O)C(NC(=O)C(Cc1ccc(C(=N)N)cc1)C(=O)N1CCCCC1)C1CCCCC1)C(N)=O` (single isomer, unassigned; less polar) [Example 27], for which the affinity corresponds to a Ki of 3.5 nM.

Take `N=C(N)NCCC[C@H](NC(=O)[C@@H](NC(=O)C(Cc1ccc(C(=N)N)cc1)C(=O)N1CCCC1C(=O)O)C1CCCCC1)C(N)=O` (single isomer, unassigned; less polar) [Example 35]: the affinity corresponds to a Ki of 84 nM.

`N=C(N)c1ccc(CNC(=O)[C@@H](NC(=O)C(Cc2ccc(C(=N)N)cc2)C(=O)NCc2ccccc2)C2CCCCC2)cc1` (single isomer, unassigned; less polar) [Example 101] showed a Ki of 37 nM.

In turn, `CN(Cc1ccccc1)C(=O)[C@@H](Cc1ccc(C(=N)N)cc1)C(=O)N[C@H](C(=O)NCC1CCN(C(=N)N)CC1)C1CCCCC1` (single isomer, unassigned; less polar) [Example 112] registered a Ki of 1 nM.

Turning to `CCC(=N)N1CCC(CNC(=O)C(NC(=O)C(Cc2ccc(C(=N)N)cc2)C(=O)N(C)Cc2ccccc2)C2CCCCC2)CC1` (single isomer, unassigned; less polar) [Example 126], the Ki was determined as 35 nM.

Regarding `N=C(N)NCCCC(NC(=O)C(NC(=O)C(Cc1ccc(C(=N)N)cc1)C(=O)N1CCCCC1)C1CCCCC1)C(N)=O` (single isomer, unassigned; more polar) [Example 28], the Ki came out at 2000 nM.

Regarding `CCOC(=O)C(Cc1cccc2ccccc12)NC(=O)[C@@H](NC(=O)C(Cc1ccc(C(=N)N)cc1)C(=O)N(C)Cc1ccccc1)C1CCCCC1` (single isomer, unassigned; more polar) [Example 107], the affinity, expressed as Ki, was 2760 nM.

Take `CCC(=N)N1CCC(CNC(=O)C(NC(=O)C(Cc2ccc(C(=N)N)cc2)C(=O)N(C)Cc2ccccc2)C2CCCCC2)CC1` (single isomer, unassigned; more polar) [Example 125]: the affinity, expressed as Ki, was 6 nM. Compared with the last molecule, the Ki is about 460-fold lower.

For the molecule `CCCC[C@H](NC(=O)C(Cc1ccc(C(=N)N)cc1)C(=O)N1CCOCC1)C(=O)N[C@@H](CCCNC(=N)N)C(N)=O` (stereo partly drawn) [Example 16, 2-(S)-[2-(R,S)-(4-Carbamimidoyl-benzyl)-3-morpholin-4-yl-3-oxo-propionyl-amino]-hexanoic acid(1-(S)-carbamoyl-4-guanidino-butyl)-amide trifluoroacetic acid salt], affinity was put at a Ki of 26 nM.

Molecule `CN(C)C(=O)C(Cc1ccc(C(=N)N)cc1)C(=O)N[C@H](C(=O)NCc1cccc(CN)c1)C1CCCCC1` (stereo partly drawn) [Example 63, N-[((S)-3-Aminomethyl-benzylcarbamoyl)-cyclohexyl-methyl]-2-(R,S)-(4-carbamimidoyl-benzyl)-N′,N′-dimethyl-malonamide trifluoroacetic acid salt] had a Ki of 2360 nM.

Molecule `CC(=O)NCc1cccc(CNC(=O)[C@@H](NC(=O)C(Cc2ccc(C(=N)N)cc2)C(=O)N(C)C)C2CCCCC2)c1` (stereo partly drawn) [Example 67, N-{[(S)-3-(Acetylamino-methyl)-benzylcarbamoyl]-cyclohexyl-methyl}-2-(R,S)-(4-carbamimidoyl-benzyl)-N′,N′-dimethyl-malonamide trifluoroacetic acid salt] gave a Ki of 260 nM.

Molecule `CN(C)C(=O)C(Cc1ccc(C(=N)N)cc1)C(=O)NC(C(=O)NCc1cccc(C(N)=O)c1)C1CCCCC1` [Example 69, 2-(R,S)-(4-Carbamimidoyl-benzyl)-N-[((S)-3-carbamoyl-benzylcarbamoyl)-cyclohexyl-methyl]-N′,N′-dimethyl-malonamide hydrochloric acid salt] gave a Ki of 780 nM.

Broadly, the Ki is the dissociation constant of the complex between target and ligand, obtained from inhibition or displacement. A lower Ki goes with tighter binding.
